These results are taken from patent US7247634B2, “Rifamycin derivatives effective against drug-resistant microbes” (Cumbre Pharmaceuticals Inc., priority 2004, dated 2007).

What all share (format): cell-based
The test system of experiment [1] is Staphylococcus aureus ATCC29213. In words: MIC, microbroth dilution (NCCLS). As to conditions: rifS strain, Cation-Adjusted Mueller-Hinton Broth, 37° C., read-out: Antimicrobial activity (MIC). A general note: In broth dilution the organism is exposed to a series of concentrations in liquid medium.
For experiment [2], the system named is Staphylococcus aureus ATCC29213 rpoB^D417Y. Description: microbe, parasite or virus in culture. As to conditions: ATCC29213, read-out: Antimicrobial activity (MIC). As for the experimental part:
(§1) Representative compounds were assayed for antimicrobial activity as follows: Minimum Inhibitory Concentrations (“MICs”) were determined by the microbroth dilution method as per NCCLS guidelines (National Committee for Clinical Laboratory Standards. 2000. Methods for dilution antimicrobial susceptibility tests for bacteria that grow aerobically, 5th ed. M7-A5. National Committee for Clinical Laboratory Standards, Wayne, Pa.), except that all growth incubations were conducted at 37° C. Bacterial cultures were tested in the following bacteriological media: S. aureus, S. epidermidis, and E. coli in Cation-Adjusted Mueller-Hinton Broth, S. pneumoniae in THY Broth supplemented with 1 mg/mL catalase under 5% CO2 atmosphere, S. pyogenes in THY Broth, E. faecalis in BHI Broth, H. influenzae in BHI Broth supplemented with 0.75 μL of 1 mg/mL NAD and 150 μL of 1 mg/ml hematin per 5 mL, and M. smegmatis in Middlebrook Broth plus ADC Enrichment.
(§2) S. aureus ATCC 29213 RpoB^H418Y is a rifampin-resistant strain with a mutation in RNA polymerase, the biological target of rifamycin antibiotics. […] S. aureus EN1252a gyrA^S84L grlA^S80F is a quinolone-resistant strain due to double mutations to DNA gyrase and topoisomerase IV, the two biological targets for quinolone antibiotics.

For experiment [3], the system named is Staphylococcus aureus ATCC29213 rpoB^H418Y. In words: microbe, parasite or virus in culture. As to conditions: ATCC29213, read-out: Antimicrobial activity (MIC). As for the experimental part: as §1, §2
Experiment [4] has as its system Staphylococcus aureus EN1252a gyrA^S84L grlA^S80F. In words: microbe, parasite or virus in culture. As to conditions: read-out: Antimicrobial activity (MIC). The procedure: as §1, §2
Experiment [5] concerns Staphylococcus epidermidis ATCC12228. Description: MIC, microbroth dilution (NCCLS). As to conditions: rifS strain, Cation-Adjusted Mueller-Hinton Broth, 37° C., read-out: Antimicrobial activity (MIC).
Experiment [6] concerns Streptococcus pneumoniae ATCC6303. In words: MIC, microbroth dilution (NCCLS). As to conditions: rifS strain, THY Broth with 1 mg/mL catalase, 5% CO2, 37° C., read-out: Antimicrobial activity (MIC).
In experiment [7] the test system is Streptococcus pyogenes ATCC19615. Description: MIC, microbroth dilution (NCCLS). As to conditions: rifS strain, THY Broth, 37° C., read-out: Antimicrobial activity (MIC).
The test system of experiment [8] is Enterococcus faecalis ATCC29212. In words: MIC, microbroth dilution (NCCLS). As to conditions: rifS strain, BHI Broth, 37° C., read-out: Antimicrobial activity (MIC).
In experiment [9] the test system is Haemophilus influenzae ATCC10211. Description: MIC, microbroth dilution (NCCLS). As to conditions: rifS strain, BHI Broth with NAD and hematin, 37° C., read-out: Antimicrobial activity (MIC).
In experiment [10] the test system is Escherichia coli ATCC25922. Description: MIC, microbroth dilution (NCCLS). As to conditions: rifS strain, Cation-Adjusted Mueller-Hinton Broth, 37° C., read-out: Antimicrobial activity (MIC).
Experiment [11] deals with Mycobacterium smegmatis ATCC700084. In words: MIC, microbroth dilution (NCCLS). As to conditions: Mycolicibacterium smegmatis, rifS strain, Middlebrook Broth plus ADC Enrichment, 37° C., read-out: Antimicrobial activity (MIC).

Converted amounts (≈) assume the structure as drawn.

For `COc1c(N2CCC(N(C)C3CCN(C4=C5NC(=O)/C(C)=C\C=C\[C@H](C)[C@H](O)[C@@H](C)[C@@H](O)[C@@H](C)[C@H](OC(C)=O)[C@H](C)[C@@H](OC)/C=C/O[C@@]6(C)Oc7c(C)c(O)c(c(c7C6=O)C4=O)C5=O)CC3)C2)c(F)cc2c(=O)c(C(=O)O)cn(C3CC3)c12` (mixture of isomers) [Example 34], the MIC in experiment [1] lay in the range of 0.004 to 0.5 mg/L (≈ 0.00347 to 0.434 µM); in experiment [2], 0.06 to 32 mg/L (≈ 0.0521 to 27.8 µM); in experiment [3], 0.06 to 16 mg/L (≈ 0.0521 to 13.9 µM); in experiment [4] it was 0.004 to 0.5 mg/L (≈ 0.00347 to 0.434 µM); in [5], 0.008 to 0.063 mg/L (≈ 0.00694 to 0.0547 µM); in experiment [6] it was 0.008 to 0.125 mg/L (≈ 0.00694 to 0.108 µM). In addition, the MIC in experiment [7] lay in the range of 0.008 to 0.063 mg/L (≈ 0.00694 to 0.0547 µM); in experiment [8], 2 to 32 mg/L (≈ 1.74 to 27.8 µM); in experiment [9], 0.125 to 2 mg/L (≈ 0.108 to 1.74 µM); in experiment [10], 0.125 to 8 mg/L (≈ 0.108 to 6.94 µM); in [11] it was 0.5 to 64 mg/L.

Regarding `CO[C@H]1/C=C/O[C@@]2(C)Oc3c(C)c(O)c4c(c3C2=O)C(=O)C(N2CCC(NCC3CCN(c5c(F)cc6c(=O)c(C(=O)O)cn(C7CC7)c6c5Cl)C3)CC2)=C(NC(=O)/C(C)=C\C=C\[C@H](C)[C@H](O)[C@@H](C)[C@@H](O)[C@@H](C)[C@H](OC(C)=O)[C@@H]1C)C4=O` (mixture of isomers) [Example 36, (R/S)-3-{4-[1-(3-Carboxy-8-chloro-1-cyclopropyl-6-fluoro-4-oxo-1,4-dihydroquinolin-7-yl)-(pyrrolidin-3-ylmethyl)-amino]-piperidin-1-yl}rifamycin S], the MIC was in the range of 0.004 to 0.5 mg/L (≈ 0.00346 to 0.432 µM) in experiment [1]; 0.06 to 32 mg/L (≈ 0.0519 to 27.7 µM) in experiment [2]; 0.06 to 16 mg/L (≈ 0.0519 to 13.8 µM) in experiment [3]; 0.004 to 0.5 mg/L (≈ 0.00346 to 0.432 µM) in experiment [4]; 0.008 to 0.063 mg/L (≈ 0.00692 to 0.0545 µM) in [5]; 0.008 to 0.125 mg/L (≈ 0.00692 to 0.108 µM) in experiment [6]. The MIC in experiment [7] was 0.008 to 0.063 mg/L (≈ 0.00692 to 0.0545 µM); in [8], 2 to 32 mg/L (≈ 1.73 to 27.7 µM); in experiment [9] it was 0.125 to 2 mg/L (≈ 0.108 to 1.73 µM); in [10], 0.125 to 8 mg/L (≈ 0.108 to 6.92 µM); in [11], 0.5 to 64 mg/L.

For `CO[C@H]1/C=C/O[C@@]2(C)Oc3c(C)c(O)c4c(c3C2=O)C(=O)C(N2CCC(NCC3CCN(c5nc6c(cc5F)c(=O)c(C(=O)O)cn6-c5ccc(F)cc5F)C3)CC2)=C(NC(=O)/C(C)=C\C=C\[C@H](C)[C@H](O)[C@@H](C)[C@@H](O)[C@@H](C)[C@H](OC(C)=O)[C@@H]1C)C4=O` (mixture of isomers) [Example 37], the MIC in experiment [1] fell in the range of 0.004 to 0.5 mg/L (≈ 0.00335 to 0.418 µM); in experiment [2], 0.06 to 32 mg/L (≈ 0.0502 to 26.8 µM); in experiment [3] it was 0.06 to 16 mg/L (≈ 0.0502 to 13.4 µM); in experiment [4] it was 0.004 to 0.5 mg/L (≈ 0.00335 to 0.418 µM); in experiment [5], 0.008 to 0.063 mg/L (≈ 0.00669 to 0.0527 µM); in experiment [6], 0.008 to 0.125 mg/L (≈ 0.00669 to 0.105 µM). The MIC in experiment [7] was 0.008 to 0.063 mg/L (≈ 0.00669 to 0.0527 µM); in experiment [8], 2 to 32 mg/L (≈ 1.67 to 26.8 µM); in experiment [9], 0.125 to 2 mg/L (≈ 0.105 to 1.67 µM); in experiment [10], 0.125 to 8 mg/L (≈ 0.105 to 6.69 µM); in experiment [11], 0.5 to 64 mg/L.

For `COc1c(N2CCC(C3(N(C)C4CCN(C5=C6NC(=O)/C(C)=C\C=C\[C@H](C)[C@H](O)[C@@H](C)[C@@H](O)[C@@H](C)[C@H](OC(C)=O)[C@H](C)[C@@H](OC)/C=C/O[C@@]7(C)Oc8c(C)c(O)c(c(c8C7=O)C5=O)C6=O)CC4)CC3)C2)c(F)cc2c(=O)c(C(=O)O)cn(C3CC3)c12` (mixture of isomers) [Example 41], the MIC lay within 0.004 to 0.5 mg/L (≈ 0.00335 to 0.419 µM) in experiment [1]; 0.06 to 32 mg/L (≈ 0.0503 to 26.8 µM) in experiment [2]; 0.06 to 16 mg/L (≈ 0.0503 to 13.4 µM) in [3]; 0.004 to 0.5 mg/L (≈ 0.00335 to 0.419 µM) in [4]; 0.008 to 0.063 mg/L (≈ 0.00671 to 0.0528 µM) in experiment [5]; 0.008 to 0.125 mg/L (≈ 0.00671 to 0.105 µM) in [6]. Besides, the MIC fell in the range of 0.008 to 0.063 mg/L (≈ 0.00671 to 0.0528 µM) in [7]; 2 to 32 mg/L (≈ 1.68 to 26.8 µM) in [8]; 0.125 to 2 mg/L (≈ 0.105 to 1.68 µM) in experiment [9]; 0.125 to 8 mg/L (≈ 0.105 to 6.71 µM) in experiment [10]; 0.5 to 64 mg/L in experiment [11].
